Laboratory results reported in PubChem BioAssay (NCI).
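Growth conditions: 96-well plates. Treatment: test compound, 48 hours, 5 concentrations. Analysis: linear interpolation between bracketing concentrations; unreached endpoints set to highest concentration. GI50 marks 50% less growth. TGI: concentration producing complete growth inhibition.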

Assays:
Experiment in all cases: NCI tumour cell line growth inhibition, 48 h
CAKI-1 renal = tested on: CAKI-1 renal
OVCAR-3 ovarian = tested on: OVCAR-3 ovarian
NCI-H226 lung = tested on: NCI-H226 lung
PC-3 prostate = tested on: PC-3 prostate
RXF 393 renal = tested on: RXF 393 renal
K-562 leukemia = tested on: K-562 leukemia
SF-295 CNS = tested on: SF-295 CNS
HL-60(TB) leukemia = tested on: HL-60(TB) leukemia
MDA-MB-435 = tested on: MDA-MB-435
SW-620 colon = tested on: SW-620 colon
OVCAR-4 ovarian = tested on: OVCAR-4 ovarian
HCT-116 colon = tested on: HCT-116 colon
MCF7 breast = tested on: MCF7 breast
SNB-75 CNS = tested on: SNB-75 CNS
SN12C renal = tested on: SN12C renal
UACC-257 melanoma = tested on: UACC-257 melanoma
LOX IMVI melanoma = tested on: LOX IMVI melanoma
HS 578T breast = tested on: HS 578T breast
UO-31 renal = tested on: UO-31 renal
OVCAR-5 ovarian = tested on: OVCAR-5 ovarian
DU-145 prostate = tested on: DU-145 prostate
CCRF-CEM leukemia = tested on: CCRF-CEM leukemia
TK-10 renal = tested on: TK-10 renal
SK-OV-3 ovarian = tested on: SK-OV-3 ovarian
SK-MEL-2 melanoma = tested on: SK-MEL-2 melanoma
MDA-MB-231 breast = tested on: MDA-MB-231 breast
M14 melanoma = tested on: M14 melanoma
U251 CNS = tested on: U251 CNS
SNB-19 CNS = tested on: SNB-19 CNS
EKVX NSCLC = tested on: EKVX NSCLC
HT29 colon = tested on: HT29 colon
T-47D breast = tested on: T-47D breast
A498 renal = tested on: A498 renal
HCC-2998 colon = tested on: HCC-2998 colon
NCI/ADR-RES ovarian = tested on: NCI/ADR-RES ovarian
NCI-H23 lung = tested on: NCI-H23 lung
COLO 205 colon = tested on: COLO 205 colon
MOLT-4 leukemia = tested on: MOLT-4 leukemia
BT-549 breast = tested on: BT-549 breast
IGROV1 ovarian = tested on: IGROV1 ovarian
HOP-62 NSCLC = tested on: HOP-62 NSCLC
SK-MEL-5 melanoma = tested on: SK-MEL-5 melanoma
HCT-15 colon = tested on: HCT-15 colon
RPMI-8226 leukemia = tested on: RPMI-8226 leukemia
A549 NSCLC = tested on: A549 NSCLC
SF-539 CNS = tested on: SF-539 CNS
KM12 colon = tested on: KM12 colon
UACC-62 melanoma = tested on: UACC-62 melanoma
NCI-H522 lung = tested on: NCI-H522 lung
ACHN renal = tested on: ACHN renal
NCI-H460 lung = tested on: NCI-H460 lung
SK-MEL-28 melanoma = tested on: SK-MEL-28 melanoma
786-0 renal = tested on: 786-0 renal
SF-268 CNS = tested on: SF-268 CNS
OVCAR-8 ovarian = tested on: OVCAR-8 ovarian
MALME-3M melanoma = tested on: MALME-3M melanoma

CCCN(CCC)c1ccc(CO)c(C)c1
GI50 (CAKI-1 renal): 38.8 µM
TGI (CAKI-1 renal): > 100 µM
GI50 (OVCAR-3 ovarian): 23 µM
TGI (OVCAR-3 ovarian): > 100 µM
GI50 (NCI-H226 lung): 9.4 µM
TGI (NCI-H226 lung): 23.7 µM
GI50 (PC-3 prostate): 17.4 µM
TGI (PC-3 prostate): 57.6 µM
GI50 (RXF 393 renal): 22.2 µM
TGI (RXF 393 renal): > 100 µM
GI50 (K-562 leukemia): 27.4 µM
TGI (K-562 leukemia): > 100 µM
GI50 (SF-295 CNS): > 100 µM
TGI (SF-295 CNS): > 100 µM
GI50 (HL-60(TB) leukemia): 21.6 µM
TGI (HL-60(TB) leukemia): 48.7 µM
GI50 (MDA-MB-435): 76.8 µM
TGI (MDA-MB-435): > 100 µM
GI50 (SW-620 colon): > 100 µM
TGI (SW-620 colon): > 100 µM
GI50 (OVCAR-4 ovarian): 11.3 µM
TGI (OVCAR-4 ovarian): 25.3 µM
GI50 (HCT-116 colon): 26.9 µM
TGI (HCT-116 colon): > 100 µM
GI50 (MCF7 breast): > 100 µM
TGI (MCF7 breast): > 100 µM
GI50 (SNB-75 CNS): 68.2 µM
TGI (SNB-75 CNS): > 100 µM
GI50 (SN12C renal): 79.4 µM
TGI (SN12C renal): > 100 µM
GI50 (UACC-257 melanoma): 11.6 µM
TGI (UACC-257 melanoma): 67.3 µM
GI50 (LOX IMVI melanoma): > 100 µM
TGI (LOX IMVI melanoma): > 100 µM
GI50 (HS 578T breast): 42.2 µM
TGI (HS 578T breast): > 100 µM
GI50 (UO-31 renal): > 100 µM
TGI (UO-31 renal): > 100 µM
GI50 (OVCAR-5 ovarian): 13.1 µM
TGI (OVCAR-5 ovarian): 44.2 µM
GI50 (DU-145 prostate): > 100 µM
TGI (DU-145 prostate): > 100 µM
GI50 (CCRF-CEM leukemia): 17.7 µM
TGI (CCRF-CEM leukemia): 59.9 µM
GI50 (TK-10 renal): 13.8 µM
TGI (TK-10 renal): 61 µM
GI50 (SK-OV-3 ovarian): > 100 µM
TGI (SK-OV-3 ovarian): > 100 µM
GI50 (SK-MEL-2 melanoma): 25.7 µM
TGI (SK-MEL-2 melanoma): 78 µM
GI50 (MDA-MB-231 breast): 77.4 µM
TGI (MDA-MB-231 breast): > 100 µM
GI50 (M14 melanoma): > 100 µM
TGI (M14 melanoma): > 100 µM
GI50 (U251 CNS): 74 µM
TGI (U251 CNS): > 100 µM
GI50 (SNB-19 CNS): > 100 µM
TGI (SNB-19 CNS): > 100 µM
GI50 (EKVX NSCLC): 28.4 µM
TGI (EKVX NSCLC): > 100 µM
GI50 (HT29 colon): 90.2 µM
TGI (HT29 colon): > 100 µM
GI50 (T-47D breast): 13.9 µM
TGI (T-47D breast): 33.5 µM
GI50 (A498 renal): 1090 nM
TGI (A498 renal): 3.64 µM
GI50 (HCC-2998 colon): > 100 µM
TGI (HCC-2998 colon): > 100 µM
GI50 (NCI/ADR-RES ovarian): > 100 µM
TGI (NCI/ADR-RES ovarian): > 100 µM
GI50 (NCI-H23 lung): 35.4 µM
TGI (NCI-H23 lung): > 100 µM
GI50 (COLO 205 colon): 19.4 µM
TGI (COLO 205 colon): 68.8 µM
GI50 (MOLT-4 leukemia): 26.8 µM
TGI (MOLT-4 leukemia): > 100 µM
GI50 (BT-549 breast): 47.6 µM
TGI (BT-549 breast): > 100 µM
GI50 (IGROV1 ovarian): 57 µM
TGI (IGROV1 ovarian): > 100 µM
GI50 (HOP-62 NSCLC): > 100 µM
TGI (HOP-62 NSCLC): > 100 µM
GI50 (SK-MEL-5 melanoma): 18.9 µM
TGI (SK-MEL-5 melanoma): 62.3 µM
GI50 (HCT-15 colon): 51.9 µM
TGI (HCT-15 colon): > 100 µM
GI50 (RPMI-8226 leukemia): 18.4 µM
TGI (RPMI-8226 leukemia): 50 µM
GI50 (A549 NSCLC): 83.3 µM
TGI (A549 NSCLC): > 100 µM
GI50 (SF-539 CNS): > 100 µM
TGI (SF-539 CNS): > 100 µM
GI50 (KM12 colon): > 100 µM
TGI (KM12 colon): > 100 µM
GI50 (UACC-62 melanoma): 22.8 µM
TGI (UACC-62 melanoma): > 100 µM
GI50 (NCI-H522 lung): 19.3 µM
TGI (NCI-H522 lung): 60.5 µM
GI50 (ACHN renal): 81 µM
TGI (ACHN renal): > 100 µM
GI50 (NCI-H460 lung): > 100 µM
TGI (NCI-H460 lung): > 100 µM
GI50 (SK-MEL-28 melanoma): > 100 µM
TGI (SK-MEL-28 melanoma): > 100 µM
GI50 (786-0 renal): > 100 µM
TGI (786-0 renal): > 100 µM
GI50 (SF-268 CNS): 63.7 µM
TGI (SF-268 CNS): > 100 µM
GI50 (OVCAR-8 ovarian): 27.4 µM
TGI (OVCAR-8 ovarian): > 100 µM
GI50 (MALME-3M melanoma): 11.3 µM
TGI (MALME-3M melanoma): 94.4 µM
